# Results: ChEMBL document CHEMBL1151178, “Staminane- and isopimarane-type diterpenes from Orthosiphon stamineus of Taiwan and their nitric oxide inhibitory activity” (J Nat Prod, 2004)
# System: J774.1
# Assay: Inhibition of LPS-induced NO production in mouse J774.1cells after 24 hrs
# Type: functional, cell-based
# Conditions: J774.1, 24 h
row,IC50 [µM],SMILES
1,119,C=C[C@@]1(C)C[C@@H](O)[C@@H]2[C@@]3(C)C=C(OC(C)=O)C(=O)C(C)(C)[C@@H]3C[C@@H](OC(C)=O)[C@@]2(O)[C@H]1OC(C)=O
2,81.8,C=C[C@@]1(C)CC(=O)[C@H]2[C@](O)(C1=O)[C@H](OC(C)=O)C[C@H]1C(C)(C)[C@H](O)[C@H](OC(=O)c3ccccc3)[C@H](O)[C@@]12C [ORTHOSIPHONONE C]
3,35,C=C[C@@]1(C)CC(=O)[C@H]2[C@](O)(C1=O)[C@H](OC(C)=O)C[C@H]1C(C)(C)[C@H](OC(=O)c3ccccc3)[C@H](O)[C@H](OC(=O)c3ccccc3)[C@@]12C [ORTHOSIPHONONE D]
4,61.1,C=C[C@H]1[C@@H](OC(=O)c2ccccc2)[C@H]2[C@](O)(C(=O)[C@@]1(C)O)[C@H](OC(C)=O)C[C@H]1C(C)(C)[C@H](OC(=O)c3ccccc3)[C@H](O)[C@H](OC(C)=O)[C@@]12C [STAMINOL C]
5,92,C=C[C@H]1[C@@H](OC(=O)c2ccccc2)[C@@H]2[C@@]3(C)C=C(OC(C)=O)C(=O)C(C)(C)[C@@H]3C[C@@H](OC(C)=O)[C@@]2(O)C(=O)[C@@]1(C)O [STAMINOL D]
6,35.7,CNC(=N)NCCC[C@H](N)C(=O)O [TILARGININE]
